What was measured:
PDX model CS225 = experiment: Lung cancer PDX transplantation tumor model; format: in vivo, nude mice or NOD/SCID mice; conditions: day 28 after administration; CTB006 10 mg/kg iv qd, Ponatinib 30 mg/kg p.o qd
Source text: (§4) To test the in vivo pharmacodynamic efficacy of CTB006 in combination with Ponatinib, several tumor animal models were selected for testing, including pancreatic cancer cells MIA-PACA-2 CDX model and multiple PDX models covering multiple cancers of intestinal cancer (CS237, CS263, CS264), lung cancer (CS225), and gastric cancer (CS266, GAS033). For mathematical statistics, ANOVA analysis was used, and P<0.05 indicates a statistically significant difference and is marked with *; P<0.01 indicates a highly significant statistical difference and is marked with **.
(§5) Patient-derived transplantation tumor models were established subcutaneously in nude mice or NOD/SCID mice, which was administered with CTB006 alone (10 mg/kg, iv, qd), Ponatinib alone (30 mg/kg, p.o, qd) the combination of them, while the control group was given an equal volume of saline.

A549 cells = experiment: Tumor cell survival by ATPlite after 24 h incubation; CDI; format: cell-based; conditions: for CDI: DR5 agonist in combination with Ponatinib
Protocol: (§1) The interaction between CTB006 antibody and Ponatinib: we used coefficient of drug interaction (CDI)^[1,2] to evaluate the combined effect of CTB006 antibody and chemotherapeutic drugs. CDI was calculated according to the following formula: CDI=AB/A×B; AB was the ratio of the detection values of the two-drug combination group to the control group (survival rate of the drug combination group), and A or B was the ratio of the detection values of each individual drug to the control group (survival rate of the drug alone group).
(§2) The survival of each tumor cell was observed by ATPlite method after incubation at 37° C., 5% CO2 for 24 h.
(§3) Methods were as described above.

MCF-7 cells = experiment: as above; format: cell-based; conditions: for CDI: DR5 agonist in combination with Ponatinib
Protocol: as §1, §2, §3

S2VP10 cells = experiment: as above; format: cell-based; conditions: for CDI: DR5 agonist in combination with Ponatinib
Protocol: as §1, §2, §3

PDX model CS264 = experiment: Colorectal cancer PDX transplantation tumor model; format: in vivo, nude mice or NOD/SCID mice; conditions: day 32 after administration; CTB006 10 mg/kg iv qd, Ponatinib 30 mg/kg p.o qd
Source text: as §4, §5

PDX model CS266 = experiment: Gastric cancer PDX transplantation tumor model; conditions: day 31; CTB006 10 mg/kg iv qd, Ponatinib 30 mg/kg p.o qd
Protocol: To test the in vivo pharmacodynamic efficacy of CTB006 in combination with Ponatinib, several tumor animal models were selected for testing, including pancreatic cancer cells MIA-PACA-2 CDX model and multiple PDX models covering multiple cancers of intestinal cancer (CS237, CS263, CS264), lung cancer (CS225), and gastric cancer (CS266, GAS033).
as §5
At day 31 after administration, when the mean tumor volume of the negative control group and CTB006 alone group reached 1 cm^3, the negative control group was sacrificed, and the administration was stopped for 5-Fu positive control group, Ponatinib alone group and the combination group and the observation continued.

PDX model GAS033 = experiment: Gastric cancer PDX transplantation tumor model; format: in vivo, nude mice or NOD/SCID mice; conditions: day 16 after administration; CTB006 10 mg/kg iv qd, Ponatinib 30 mg/kg p.o qd
Source text: as §4, §5

S2Lm7AA cells = experiment: Tumor cell survival by ATPlite after 24 h incubation; CDI; format: cell-based
Protocol: as §1, §2

HT29 cells = experiment: as above; format: cell-based
Protocol: as §1, §2

SK-HEP-1 cells = experiment: as above; format: cell-based
Protocol: as §1, §2

N87 cells = experiment: as above; format: cell-based
Protocol: as §1, §2

TE1 cells = experiment: as above; format: cell-based
Protocol: as §1, §2

Huh-1 cells = experiment: as above; format: cell-based
Protocol: as §1, §2

SGC-7901 cells = experiment: as above; format: cell-based
Protocol: as §1, §2

primary tumor cells S1 = experiment: Killing of primary tumor cells from ovarian cancer ascites; CDI; format: cell-based
Protocol: as §1, §2

primary tumor cells S2 = experiment: as above; format: cell-based
Protocol: as §1, §2

PDX model CS263 = experiment: Colorectal cancer PDX transplantation tumor model
Source text: as §4, §5

[1] = tested on: MIA-Paca-2 transplanted tumor; experiment: Pancreatic cancer CDX model, subcutaneous transplantation; conditions: CTB006 10 mg/kg iv qw, Ponatinib 30 mg/kg p.o qd, alone or in combination, 22 days; euthanized at tumor volume 1 cm^3
Protocol: The CDX model was established by subcutaneous transplantation of MIA-Paca-2 in BALB/c nude mice (Vital River), and drug administration was started when the tumor volume was about 0.1 cm^3, and when it reached 1 cm^3, the animals were ethically euthanized and survival time was recorded. CTB006 (10 mg/kg, iv, qw) and Ponatinib (30 mg/kg, p.o, qd) were administered alone or in combination for treatment groups, and the control group was administered an equal volume of saline.

PDX model CS237 = experiment: Colorectal cancer PDX transplantation tumor model; format: in vivo, nude mice or NOD/SCID mice; conditions: day 52 after administration; CTB006 10 mg/kg iv qd, Ponatinib 30 mg/kg p.o qd
Source text: as §4, §5

CC(=O)O[C@H]1C(=O)[C@@]2(C)[C@H]([C@H](OC(=O)c3ccccc3)[C@]3(O)C[C@H](OC(=O)[C@H](O)[C@@H](NC(=O)c4ccccc4)c4ccccc4)C(C)=C1C3(C)C)[C@]1(OC(C)=O)CO[C@@H]1C[C@@H]2O [Taxol]
tumor inhibition rates (TGI) (PDX model CS225): 50%

AMG655: DR5 agonistic monoclonal antibody Conatumumab (AMG655, Amgen)
CDI (A549 cells): 0.6362 | CDI (MCF-7 cells): 0.317 | killing effect (MCF-7 cells; drug alone): significant killing effect | killing effect (MCF-7 cells; used in combination): more significant | CDI (S2VP10 cells): 0.8123

O=c1[nH]cc(F)c(=O)[nH]1 [5-Fu]
tumor inhibition rates (TGI) (PDX model CS264): 31.2% | tumor inhibition rates (TGI) (PDX model CS266): 57.5%

Cc1ccc(C(=O)Nc2ccc(CN3CCN(C)CC3)c(C(F)(F)F)c2)cc1C#Cc1cnc2cccnn12 [Ponatinib]
tumor inhibition rates (TGI) (PDX model CS225): 50% | tumor inhibition rates (TGI) (PDX model CS264): 32.4% | tumor inhibition rate (TGI) (PDX model GAS033): 37% | Survival Rate (%) (S2Lm7AA cells; Ponatinib alone 15.625 nM): 90.79% | Survival Rate (%) (S2Lm7AA cells; Ponatinib alone 31.25 nM): 90.05% | Survival Rate (%) (S2Lm7AA cells; Ponatinib alone 62.5 nM): 85.82% | Survival Rate (%) (S2Lm7AA cells; Ponatinib alone 125 nM): 87.89% | Survival Rate (%) (S2Lm7AA cells; Ponatinib alone 250 nM): 79.85% | Survival Rate (%) (S2Lm7AA cells; Ponatinib alone 500 nM): 76.76% | Survival Rate (%) (S2Lm7AA cells; Ponatinib alone 1000 nM): 77.11% | Survival Rate (%) (HT29 cells; Ponatinib alone 15.625 nM): 102.78% | Survival Rate (%) (HT29 cells; Ponatinib alone 31.25 nM): 103.51% | Survival Rate (%) (HT29 cells; Ponatinib alone 62.5 nM): 102.93% | Survival Rate (%) (HT29 cells; Ponatinib alone 125 nM): 95.77% | Survival Rate (%) (HT29 cells; Ponatinib alone 250 nM): 84.39% | Survival Rate (%) (HT29 cells; Ponatinib alone 500 nM): 87.91% | Survival Rate (%) (HT29 cells; Ponatinib alone 1000 nM): 80.77% | Survival Rate (%) (SK-HEP-1 cells; Ponatinib alone 15.625 nM): 95.48% | Survival Rate (%) (SK-HEP-1 cells; Ponatinib alone 31.25 nM): 92.47% | Survival Rate (%) (SK-HEP-1 cells; Ponatinib alone 62.5 nM): 92.34% | Survival Rate (%) (SK-HEP-1 cells; Ponatinib alone 125 nM): 84.53% | Survival Rate (%) (SK-HEP-1 cells; Ponatinib alone 250 nM): 77.45% | Survival Rate (%) (SK-HEP-1 cells; Ponatinib alone 500 nM): 68.54% | Survival Rate (%) (SK-HEP-1 cells; Ponatinib alone 1000 nM): 67.85% | Survival Rate (%) (N87 cells; Ponatinib alone 15.625 nM): 87.89% | Survival Rate (%) (N87 cells; Ponatinib alone 31.25 nM): 83.79% | Survival Rate (%) (N87 cells; Ponatinib alone 62.5 nM): 84.36% | Survival Rate (%) (N87 cells; Ponatinib alone 125 nM): 83.71% | Survival Rate (%) (N87 cells; Ponatinib alone 250 nM): 82.65% | Survival Rate (%) (N87 cells; Ponatinib alone 500 nM): 84.46% | Survival Rate (%) (N87 cells; Ponatinib alone 1000 nM): 82.19% | Survival Rate (%) (TE1 cells; Ponatinib alone 15.625 nM): 107.94% | Survival Rate (%) (TE1 cells; Ponatinib alone 31.25 nM): 103.25% | Survival Rate (%) (TE1 cells; Ponatinib alone 62.5 nM): 104.04% | Survival Rate (%) (TE1 cells; Ponatinib alone 125 nM): 100.27% | Survival Rate (%) (TE1 cells; Ponatinib alone 250 nM): 97.30% | Survival Rate (%) (TE1 cells; Ponatinib alone 500 nM): 89.97% | Survival Rate (%) (TE1 cells; Ponatinib alone 1000 nM): 73.00% | Survival Rate (%) (Huh-1 cells; Ponatinib alone 15.625 nM): 97.49% | Survival Rate (%) (Huh-1 cells; Ponatinib alone 31.25 nM): 92.59% | Survival Rate (%) (Huh-1 cells; Ponatinib alone 62.5 nM): 91.15% | Survival Rate (%) (Huh-1 cells; Ponatinib alone 125 nM): 83.68% | Survival Rate (%) (Huh-1 cells; Ponatinib alone 250 nM): 79.87% | Survival Rate (%) (Huh-1 cells; Ponatinib alone 500 nM): 70.61% | Survival Rate (%) (Huh-1 cells; Ponatinib alone 1000 nM): 64.68% | Survival Rate (%) (SGC-7901 cells; Ponatinib alone 15.625 nM): 100.08% | Survival Rate (%) (SGC-7901 cells; Ponatinib alone 31.25 nM): 98.30% | Survival Rate (%) (SGC-7901 cells; Ponatinib alone 62.5 nM): 99.90% | Survival Rate (%) (SGC-7901 cells; Ponatinib alone 125 nM): 95.83% | Survival Rate (%) (SGC-7901 cells; Ponatinib alone 250 nM): 86.80% | Survival Rate (%) (SGC-7901 cells; Ponatinib alone 500 nM): 75.77% | Survival Rate (%) (SGC-7901 cells; Ponatinib alone 1000 nM): 61.42% | Survival Rate (%) (primary tumor cells S1; Ponatinib alone 25 nM): 89.60% | Survival Rate (%) (primary tumor cells S1; Ponatinib alone 50 nM): 101.09% | Survival Rate (%) (primary tumor cells S1; Ponatinib alone 100 nM): 85.81% | Survival Rate (%) (primary tumor cells S1; Ponatinib alone 200 nM): 82.23% | Survival Rate (%) (primary tumor cells S2; Ponatinib alone 25 nM): 101.93% | Survival Rate (%) (primary tumor cells S2; Ponatinib alone 50 nM): 109.27% | Survival Rate (%) (primary tumor cells S2; Ponatinib alone 100 nM): 98.46% | Survival Rate (%) (primary tumor cells S2; Ponatinib alone 200 nM): 90.46% | tumor inhibition rates (TGI) (PDX model CS263; day 44 after administration, CTB006 10 mg/kg iv qd, Ponatinib 30 mg/kg p.o qd): 45.3% | median survival (PDX model CS263; time to reach the mean tumor volume of 1.0 cm^3 as cutoff, administration stopped at day 44): 56 days | median survival time [1]: 34.5 days | tumor inhibition rate (TGI) (PDX model CS237): 43.8% | tumor inhibition rates (TGI) (PDX model CS266): 87.7% | Survival Rate (%) (A549 cells; Ponatinib alone 15.625 nM): 101.54% | Survival Rate (%) (A549 cells; Ponatinib alone 31.25 nM): 106.99% | Survival Rate (%) (A549 cells; Ponatinib alone 62.5 nM): 105.05% | Survival Rate (%) (A549 cells; Ponatinib alone 125 nM): 107.07% | Survival Rate (%) (A549 cells; Ponatinib alone 250 nM): 104.14% | Survival Rate (%) (A549 cells; Ponatinib alone 500 nM): 93.76% | Survival Rate (%) (A549 cells; Ponatinib alone 1000 nM): 81.32% | Survival Rate (%) (MCF-7 cells; Ponatinib alone 15.625 nM): 102.70% | Survival Rate (%) (MCF-7 cells; Ponatinib alone 62.5 nM): 103.26% | Survival Rate (%) (MCF-7 cells; Ponatinib alone 250 nM): 94.14% | Survival Rate (%) (MCF-7 cells; Ponatinib alone 1000 nM): 68.81% | Survival Rate (%) (S2VP10 cells; Ponatinib alone 15.625 nM): 98.02% | Survival Rate (%) (S2VP10 cells; Ponatinib alone 31.25 nM): 97.47% | Survival Rate (%) (S2VP10 cells; Ponatinib alone 62.5 nM): 99.87% | Survival Rate (%) (S2VP10 cells; Ponatinib alone 125 nM): 96.84% | Survival Rate (%) (S2VP10 cells; Ponatinib alone 250 nM): 87.54% | Survival Rate (%) (S2VP10 cells; Ponatinib alone 500 nM): 75.12% | Survival Rate (%) (S2VP10 cells; Ponatinib alone 1000 nM): 69.06%

B1: TRAIL: DR5 natural ligand TRAIL (Sino Biological) (protein, UniProt P50591 1-281, looked up)
Tumor necrosis factor ligand …: MAMMEVQGGPSLGQTCVLIVIFTVLLQSLCVAVTYVYFTNELKQMQDKYSKSGIACFLKEDDSYWDPNDEESMNSPCWQVKWQLRQLVRKMILRTSEETISTVQEKQQNISPLVRERGPQRVAAHITGTRGRSNTLSSPNSKNEKALGRKINSWESSRSGHSFLSNLHLRNGELVIHEKGFYYIYSQTYFRFQEEIKENTKNDKQMVQYIYKYTSYPDPILLMKSARNSCWSKDAEYGLYSIYQGGIFELKENDRIFVSVTNEHLIDMDHEASFFGAFLVG
CDI (A549 cells): 0.7329 | CDI (MCF-7 cells): 0.3303 | killing effect (MCF-7 cells; drug alone): did not have a significant killing effect | CDI (S2VP10 cells): 0.5179
